In patent US10717731B2, “Nitrogen-containing aromatic heterocyclic compound” (MITSUBISHI TANABE PHARMA CORPORATION, priority 2015, dated 2020):

Target: T1, human CYP11B2 (Homo sapiens, UniProt P19099)
T1 construct: expressed in transfected cells; mitochondrial fraction
T1 sequence (P19099 25-503): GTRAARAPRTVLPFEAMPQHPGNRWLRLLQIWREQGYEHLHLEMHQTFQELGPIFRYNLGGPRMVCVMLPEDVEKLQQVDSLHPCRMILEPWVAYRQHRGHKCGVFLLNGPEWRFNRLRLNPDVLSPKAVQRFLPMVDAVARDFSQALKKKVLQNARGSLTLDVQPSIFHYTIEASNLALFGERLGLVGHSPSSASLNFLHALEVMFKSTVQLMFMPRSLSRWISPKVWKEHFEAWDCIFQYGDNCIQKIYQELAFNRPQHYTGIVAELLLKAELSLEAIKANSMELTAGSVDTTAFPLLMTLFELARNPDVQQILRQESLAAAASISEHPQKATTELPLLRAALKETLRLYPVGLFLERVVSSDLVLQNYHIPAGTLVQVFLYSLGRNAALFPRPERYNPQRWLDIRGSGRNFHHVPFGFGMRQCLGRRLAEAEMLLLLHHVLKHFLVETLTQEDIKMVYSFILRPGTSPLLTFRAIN
Test: Inhibitory effect on hCYP11B2: aldosterone production in mitochondrial fraction of V79 cells stably expressing human CYP11B2, HTRF
Type: biochemical
Details: 0.5 μmol/L deoxycorticosterone, 150 μmol/L NADPH, 1.5-2 hours at room temperature
Procedure: Experimental Example 1 (Inhibitory Effect on hCYP11B2)
The pcDNA3.1-human CYP11B2 plasmid was transfected into a Chinese hamster lung fibroblast V79 cell line to produce a cell line stably expressing human CYP11B2 gene.
The cells were cultured and grown in the Dulbecco's modified Eagle's/Ham's medium supplemented with 10% fetal bovine serum and 1% G418 disulfate solution under the environment of 37° C., 95% air, and 5% CO2, and the grown cells were harvested.
Then, the cells were fractionated to obtain mitochondria by reference to a method described in Chabre et al. JCE & M 85 (11) 4060-68, 2000. In particular, the cells suspended in a 5 mmol/L Tris-HCl buffer (pH 7.4) containing 250 mmol/L sucrose were homogenized in a Teflon (Registered Trademark) Potter Elvehjem homogenizer, and then the suspension was centrifuged (800×g, 15 min.). The supernatant was separated and again centrifuged (10000×g, 15 min.) to obtain a pellet (mitochondrial fraction).
The mitochondrial fraction diluted with a buffer containing 10 mmol/L KH2PO4, 10 mmol/L Tris, 20 mmol/L KCl, 25 mmol/L sucrose, 5 mmol/L MgCl2, and 0.05% bovine serum albumin was dispensed to a 96-well plate. 0.5 μmol/L Deoxycorticosterone, 150 μmol/L NADPH and a compound of each concentration were added to each well, and incubated for 1.5-2 hours at room temperature to produce aldosterone. An amount of the produced aldosterone in the incubated solution was determined by using HTRF (Homogeneous Time Resolved Fluorescence) method.
IC50 (nmol/L) was calculated by analyzing the aldosterone production inhibition rate (%) of each concentration of compounds by non-linear regression to a logistic curve.

Row | IC50 | Compound
1 | 7.4 nM | O=C(CN1CCN(c2cc(-c3ccc(F)cc3)cnn2)CC1)N[C@@H]1CCNC[C@H]1F (single isomer, unassigned) [Example 89a]
2 | 33 nM | O=C(CN1CCN(c2cc(-c3ccc(Cl)cc3)cnn2)CC1)NC1CCNCC1O (single isomer, unassigned) [Example 90a]
3 | 76 nM | O=C(CN1CCN(c2cc(-c3ccc(Cl)cc3)cnn2)CC1)NC1CCNCC1O (single isomer, unassigned) [Example 90b]
4 | 30 nM | CN1CCC(NC(=O)CN2CCN(c3cc(-c4ccc(Cl)cc4)cnn3)CC2)CC1=O (single isomer, unassigned) [Example 91a]
5 | 12 nM | CN1CCC(NC(=O)CN2CCN(c3cc(-c4ccc(Cl)cc4)cnn3)CC2)CC1=O (single isomer, unassigned) [Example 91b]
6 | 6.6 nM | O=C(CN1CCN(c2cncc(-c3ccc(F)cc3)c2)CC1)NC1CCn2ccnc2C1 (stereo not drawn) [Example 1]
7 | 14 nM | CC(C)(C)OC(=O)N1C2COCC1CC(NC(=O)CN1CCN(c3cncc(-c4ccc(F)cc4)c3)CC1)C2 (stereo not drawn) [Example 5]
8 | 13 nM | CN(C)[C@H]1CC[C@@H](NC(=O)CN2CCN(c3cncc(-c4ccc(F)cc4)c3)CC2)CC1 [Example 6]
9 | 4.8 nM | Cc1ccccc1-c1cncc(N2CCN(CC(=O)Nc3cnn(C)c3)CC2)c1 [Example 7]
10 | 4.9 nM | Cc1ccccc1-c1cncc(N2CCN(CC(=O)N[C@H](CO)C(C)C)CC2)c1 [Example 8]
11 | 9.2 nM | Cc1ccc(-c2cncc(N3CCN(CC(=O)NC4CC5COCC(C4)C5O)CC3)c2)cc1 (stereo not drawn) [Example 10]
12 | 18 nM | CC(C)NC(=O)CN1CCN(c2cncc(-c3ccc(C#N)nc3)c2)CC1 [Example 11]
13 | 11 nM | CC(C)NC(=O)CN1CCN(c2cncc(-c3ccc4c(c3)CCO4)c2)CC1 [Example 13]
14 | 30 nM | CC(C)NC(=O)CN1CCN(c2cncc(-c3ccc4cn[nH]c4c3)c2)CC1 [Example 14]
15 | 18 nM | CC(C)NC(=O)CN1CCN(c2cncc(-c3ccc4cnn(C)c4c3)c2)CC1 [Example 15]
16 | 6.9 nM | CC1CC=C(c2cncc(N3CCN(CC(=O)NC(C)C)CC3)c2)CC1 (stereo not drawn) [Example 16]
17 | 17 nM | CC1CCC(c2cncc(N3CCN(CC(=O)NC(C)C)CC3)c2)CC1 (stereo not drawn) [Example 17]
18 | 14 nM | C[C@H](O)CNC(=O)CN1CCN(c2cncc(-c3ccc4cnn(C)c4c3)n2)CC1 [Example 18]
19 | 4.5 nM | CO[C@H]1CC[C@@H](NC(=O)CN2CCN(c3cncc(-c4ccc(C)cc4)n3)CC2)CC1 [Example 20]
20 | 28 nM | Cc1ccc(-c2cncc(N3CCN(CC(=O)NCC4(O)CCN(C)CC4)CC3)n2)cc1 [Example 21]
21 | 19 nM | Cn1ncc2ccc(-c3cncc(N4CCN(CC(=O)N[C@H]5CC[C@@H](CO)CC5)CC4)n3)cc21 [Example 22]

Row | IC50 | Compound
22 | 14 nM | CO[C@H]1CC[C@@H](NC(=O)CN2CCN(c3cncc(-c4ccc5cnn(C)c5c4)n3)CC2)CC1 [Example 26]
23 | 42 nM | CN1CCC(NC(=O)CN2CCN(c3cncc(-c4ccc5cnn(C)c5c4)n3)CC2)CC1 [Example 27]
24 | 10 nM | CO[C@H]1CC[C@@H](NC(=O)CN2CCN(c3cncc(-c4ccc5c(cnn5C)c4)n3)CC2)CC1 [Example 28]
25 | 37 nM | Cn1ncc2cc(-c3cncc(N4CCN(CC(=O)N[C@H]5CC[C@@H](N(C)C)CC5)CC4)n3)ccc21 [Example 29]
26 | 13 nM | Cn1ncc2cc(-c3cncc(N4CCN(CC(=O)N[C@H]5CC[C@@H](C(C)(C)O)CC5)CC4)n3)ccc21 [Example 30]
27 | 5.1 nM | CN(C)[C@H]1CC[C@H](NC(=O)CN2CCN(c3cncc(-c4ccc(F)cc4)n3)CC2)CC1 [Example 31]
28 | 9.6 nM | O=C(CN1CCN(c2cncc(-c3ccc(F)cc3)n2)CC1)N[C@H]1CC[C@@H](N2CCOCC2)CC1 [Example 32]
29 | 3.9 nM | O=C1CN([C@H]2CC[C@@H](NC(=O)CN3CCN(c4cncc(-c5ccc(F)cc5)n4)CC3)CC2)CCN1 [Example 33]
30 | 7 nM | O=C(CN1CCN(c2cncc(-c3ccc(F)cc3)n2)CC1)NC1CCN(C2CCOCC2)CC1 [Example 34]
31 | 8.6 nM | CS(=O)(=O)CCN1CCC(NC(=O)CN2CCN(c3cncc(-c4ccc(F)cc4)n3)CC2)CC1 [Example 35]
32 | 4.8 nM | O=C(CN1CCN(c2cncc(-c3ccc(F)cc3)n2)CC1)NC1CCN(c2ncccn2)CC1 [Example 36]
33 | 8.4 nM | CC(=O)N[C@H]1CC[C@@H](NC(=O)CN2CCN(c3cncc(-c4ccc(F)cc4)n3)CC2)CC1 [Example 37]
34 | 8.7 nM | CN(C)[C@H]1CC[C@@H](NC(=O)CN2CCN(c3cncc(-c4ccc(Cl)cc4)n3)CC2)CC1 [Example 38]
35 | 4.3 nM | CC(C)[C@@H](CO)NC(=O)CN1CCN(c2cncc(-c3ccc(Cl)cc3)n2)CC1 [Example 39]
36 | 4 nM | O=C(CN1CCN(c2cncc(-c3ccc(Cl)cc3)n2)CC1)NN1CCCC1 [Example 40]
37 | 9.6 nM | O=C(CN1CCN(c2cncc(-c3ccc(Cl)cc3)n2)CC1)NC1CCS(=O)(=O)CC1 [Example 41]
38 | 40 nM | CC(C)[C@@H](CO)NC(=O)CN1CCN(c2cncc(-c3ccc(C(F)(F)F)cc3)n2)C[C@H]1C [Example 42]
39 | 41 nM | C[C@@H]1CN(c2cncc(-c3ccc(C(F)(F)F)cc3)n2)CCN1CC(=O)N[C@H]1CC[C@](C)(O)CC1 [Example 43]
40 | 56 nM | C[C@@H]1CN(c2cncc(-c3ccc(C(F)(F)F)cc3)n2)CCN1CC(=O)N[C@@H](C)C(C)(C)O [Example 44]
41 | 20 nM | C[C@@H]1CN(c2cncc(-c3ccc(C(F)(F)F)cc3)n2)CCN1CC(=O)NCC(C)(C)O [Example 45]
42 | 26 nM | C[C@@H]1CN(c2cncc(-c3ccc(C(F)(F)F)cc3)n2)CCN1CC(=O)N[C@H]1CCC[C@H]1O [Example 46]

Row | IC50 | Compound
43 | 22 nM | Cc1ccccc1-c1cncc(N2CCN(CC(=O)NC3CCN(CCS(C)(=O)=O)CC3)CC2)n1 [Example 47]
44 | 48 nM | CC(C)NC(=O)CN1CCN(c2cncc(-c3ccc4c(cnn4C)c3)n2)CC1 [Example 50]
45 | 17 nM | CC(C)NC(=O)CN1CCN(c2cncc(-c3ccc(C(F)(F)F)cc3)n2)C[C@H]1C [Example 51]
46 | 18 nM | CC1CCC(c2cncc(N3CCN(CC(=O)NC(C)C)CC3)n2)CC1 (stereo not drawn) [Example 52]
47 | 25 nM | CC(C)NC(=O)CN1CCN(c2cncc(-c3ccc(C#N)nc3)n2)CC1 [Example 53]
48 | 16 nM | Cn1ncc2ccc(-c3cncc(N4CCN(CC(=O)NN5CCCC5)CC4)n3)cc21 [Example 54]
49 | 2.2 nM | CC(C)NC(=O)CN1CCN(c2cncc(-c3ccc4c(c3)CCO4)n2)CC1 [Example 55]
50 | 38 nM | CC(C)NC(=O)CN1CCN(c2cncc(-c3ccc4cn[nH]c4c3)n2)CC1 [Example 56]
51 | 16 nM | Cc1ccccc1-c1cnnc(N2CCN(CC(=O)N[C@H]3CC[C@H](N4CCOCC4)CC3)CC2)c1 [Example 57]
52 | 20 nM | Cc1ccc(-c2cnnc(N3CCN(CC(=O)N[C@@H]4CCOC[C@@H]4O)CC3)c2)cc1 [Example 58]
53 | 23 nM | CNC(=O)CN1CCC(NC(=O)CN2CCN(c3cc(-c4ccc(C)cc4)cnn3)CC2)CC1 [Example 59]
54 | 18 nM | Cc1ccc(-c2cnnc(N3CCN(CC(=O)NC[C@H]4CN(C)CCO4)CC3)c2)cc1 [Example 60]
55 | 2.5 nM | Cc1ccccc1-c1cnnc(N2CCN(CC(=O)Nc3cccnc3)CC2)c1 [Example 61]
56 | 11 nM | CS(=O)(=O)N1CCC(CNC(=O)CN2CCN(c3cc(-c4ccc(F)cc4)cnn3)CC2)CC1 [Example 62]
57 | 8.8 nM | C[C@H](O)CNC(=O)CN1CCN(c2cc(-c3ccc(F)cc3)cnn2)CC1 [Example 63]
58 | 6.6 nM | CC(C)(C)OC(=O)N1CCN(CCNC(=O)CN2CCN(c3cc(-c4ccc(F)cc4)cnn3)CC2)CC1 [Example 64]
59 | 9.1 nM | COC1CCN(NC(=O)CN2CCN(c3cc(-c4ccc(Cl)cc4)cnn3)CC2)CC1 [Example 65]
60 | 9.6 nM | CNC(=O)COC1CCC(NC(=O)CN2CCN(c3cc(-c4ccc(F)cc4)cnn3)CC2)CC1 (stereo not drawn) [Example 66]
61 | 41 nM | CN(C)[C@H]1CC[C@@H](NC(=O)CN2CCN(c3cc(-c4c(F)cccc4F)cnn3)CC2)CC1 [Example 67]
62 | 8.3 nM | CNC(=O)COC1CCC(NC(=O)CN2CCN(c3cc(-c4ccc(Cl)cc4)cnn3)CC2)CC1 (stereo not drawn) [Example 68]

Row | Compound | IC50
63 | Cc1ccccc1-c1cncc(N2CCN(CC(=O)N[C@H]3CN4CCC3CC4)CC2)n1 [Example 48] | 14 nM
